Literature values as cited in patent publication US8097644B2, “Indole compounds having sphingosine-1-phosphate (S1P) receptor antagonist” (Allergan, Inc., priority 2006, dated 2012).

Experiments:
[1] = system: cardiac G protein-gated potassium channel IKACh; details: whole-cell recordings
perfused porcine eyes = perfused porcine eyes (IOVS 45, 2263; 2004)

Row | SMILES | myocytes responding to acetylcholine in which an inwardly rectifying potassium current was evoked [1] | decrease of outflow facility (perfused porcine eyes)
1 | CCCCCCCCc1ccc(CC[C@](N)(CO)COP(=O)(O)O)cc1 [FTY720-P] | ~90% | –
2 | CCCCCCCCCCCCC/C=C/[C@@H](O)[C@@H](N)COP(=O)(O)O [Example S1P, Sphingosine-1-Phosphate] | – | > 30%
